Publication PMC6532426 (Nature chemistry, 2019)

Molecular target: active human CypA protein (Homo sapiens, UniProt P62937)
Experiment: Surface plasmon resonance
Type: binding
Settings: assays of Fig. 5 (CypA SPR, IL-2)

Sequence of active human CypA protein (P62937 whole entry): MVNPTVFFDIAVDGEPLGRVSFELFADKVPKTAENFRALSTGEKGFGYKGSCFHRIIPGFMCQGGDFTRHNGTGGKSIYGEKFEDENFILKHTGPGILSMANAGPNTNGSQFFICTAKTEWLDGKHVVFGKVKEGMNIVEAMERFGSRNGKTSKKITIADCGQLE

| immunosuppressive activity / CypA affinity in words | immunosuppressive activity / CypA affinity in words (listed as (–)-28) | SMILES |
| --- | --- | --- |
| completely inactive |  | CC(=O)O[C@@H]1OC[C@H]2CC(=O)CC[C@H]21 [(-)-24] |
| completely inactive | inactive | CC1(C)CCCC(C)(C2=C[C@@H]3COC(=O)[C@@H]3CC2)C1 (stereo partly drawn) [compound 28] |
